According to patent US8987256B2, “Oxo-heterocyclic substituted carboxylic acid derivatives and the use thereof” (Bayer Intellectual Property GmbH, priority 2008, dated 2015):
pEC50, pIC50: −log10 of the molar value.

Legend:
saphenous artery rings = assay: Vasorelaxant effect in vitro (phenylephrine-contracted artery rings); set-up: species or system Rabbits; conditions: concentration reducing phenylephrine-induced contraction by 50%
Procedure: Rabbits are anesthetized and sacrificed by intravenous injection of thiopental sodium (about 50 mg/kg) and exsanguinated. The saphenous artery is removed and divided into rings 3 mm wide. The rings are mounted singly on in each case a pair of triangular hooks open at the end and made of 0.3 mm-thick special wire (Remanium®). Each ring is placed under an initial tension in 5 ml organ baths with Krebs-Henseleit solution which is at 37° C., is gassed with carbogen and has the following composition: NaCl 119 mM; KCl 4.8 mM; CaCl2×2H2O 1 mM; MgSO4×7H2O 1.4 mM; KH2PO4 1.2 mM; NaHCO3 25 mM; glucose 10 mM; bovine serum albumin 0.001%. The force of contraction is detected with Statham UC2 cells, amplified and digitized via A/D converters (DAS-1802 HC, Keithley Instruments, Munich) and recorded in parallel on chart recorders. Contractions are induced by addition of phenylephrine.
After several (generally 4) control cycles, the substance to be investigated is added in each further run in increasing dosage, and the level of the contraction achieved under the influence of the test substance is compared with the level of the contraction reached in the last preceding run. The concentration necessary to reduce the contraction reached in the preceding control by 50% is calculated from this (IC50). The standard application volume is 5 μl. The proportion of DMSO in the bath solution corresponds to 0.1%.

[1] = molecular target: T1, soluble guanylate cyclase (sGC) (Rattus norvegicus, UniProt P20595); assay: Activating action at the sGC enzyme in vitro (PPi detection, luciferase); assay type: biochemical; conditions: for pEC50: read-out: EC50 (concentration at 50% of maximum efficacy), activating action at the sGC enzyme
T1 construct: made in house; host or cells: baculovirus/Sf9 insect cells
T1 sequence (P20595 1-619): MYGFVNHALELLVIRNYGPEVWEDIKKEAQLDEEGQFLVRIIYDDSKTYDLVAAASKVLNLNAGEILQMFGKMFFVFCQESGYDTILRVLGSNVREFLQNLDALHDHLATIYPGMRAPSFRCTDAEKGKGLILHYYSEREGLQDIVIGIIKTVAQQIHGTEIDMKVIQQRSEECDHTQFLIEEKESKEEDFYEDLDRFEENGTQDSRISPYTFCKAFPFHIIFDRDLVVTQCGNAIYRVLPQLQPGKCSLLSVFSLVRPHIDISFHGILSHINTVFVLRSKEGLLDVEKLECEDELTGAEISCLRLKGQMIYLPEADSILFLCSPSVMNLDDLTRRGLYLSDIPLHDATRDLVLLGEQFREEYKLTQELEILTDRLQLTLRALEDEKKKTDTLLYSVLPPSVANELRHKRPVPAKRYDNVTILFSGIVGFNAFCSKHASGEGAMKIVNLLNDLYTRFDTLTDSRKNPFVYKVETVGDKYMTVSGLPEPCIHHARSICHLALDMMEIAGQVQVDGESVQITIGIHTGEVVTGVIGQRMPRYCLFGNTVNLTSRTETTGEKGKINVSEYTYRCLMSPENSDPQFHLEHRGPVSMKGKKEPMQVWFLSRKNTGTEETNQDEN
T1 sequence (P19686 1-690 partner): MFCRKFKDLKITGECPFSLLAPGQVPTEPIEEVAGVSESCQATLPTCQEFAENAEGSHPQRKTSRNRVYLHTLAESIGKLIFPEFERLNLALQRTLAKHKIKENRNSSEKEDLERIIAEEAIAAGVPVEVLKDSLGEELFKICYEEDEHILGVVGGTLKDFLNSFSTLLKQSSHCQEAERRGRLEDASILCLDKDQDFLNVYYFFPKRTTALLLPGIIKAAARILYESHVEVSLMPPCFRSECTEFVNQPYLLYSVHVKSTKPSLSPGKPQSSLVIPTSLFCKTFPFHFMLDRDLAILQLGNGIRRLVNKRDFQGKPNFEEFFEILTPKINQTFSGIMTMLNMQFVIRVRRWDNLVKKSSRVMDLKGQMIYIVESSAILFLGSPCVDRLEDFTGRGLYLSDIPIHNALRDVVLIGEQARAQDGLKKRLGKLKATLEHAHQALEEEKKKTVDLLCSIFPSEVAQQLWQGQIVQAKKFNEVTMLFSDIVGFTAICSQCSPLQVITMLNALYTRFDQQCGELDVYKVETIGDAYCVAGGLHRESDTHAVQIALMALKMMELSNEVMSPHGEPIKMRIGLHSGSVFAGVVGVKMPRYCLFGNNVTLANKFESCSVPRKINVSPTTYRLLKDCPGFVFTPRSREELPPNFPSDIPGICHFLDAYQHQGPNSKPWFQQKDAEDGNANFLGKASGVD
Procedure: Soluble guanylate cyclase (sGC) converts on stimulation GTP into cGMP and pyrophosphate (PPi). PPi is detected with the aid of the assay described below. The signal produced in the assay increases as the reaction progresses and serves as a measure of the sGC enzyme activity under the given stimulation.
To carry out the assay, 29 μl of enzyme solution [0-10 nM soluble guanylate cyclase (prepared according to Honicka et al., J. Mol. Med. 77, 14-23 (1999)) in 50 mM TEA, 2 mM MgCl2, 0.1% BSA (fraction V), 0.005% Brij®, pH 7.5] are initially introduced into a microplate, and 1 μl of the substance to be tested (as a serially diluted solution in DMSO) is added. The mixture is incubated at room temperature for 10 min. Then 20 μl of detection mix [1.2 nM Firefly Luciferase (Photinus pyralis luciferase, Promega), 29 μM dehydroluciferin (prepared according to Bitler & McElroy, Arch. Biochem. Biophys. 72, 358 (1957)), 122 μM luciferin (Promega), 153 μM ATP (Sigma) and 0.4 mM DTT (Sigma) in 50 mM TEA, 2 mM MgCl2, 0.1% BSA (fraction V), 0.005% Brij®, pH 7.5] are added. The enzyme reaction is started by adding 20 μl of substrate solution [1.25 mM guanosine 5′-triphosphate (Sigma) in 50 mM TEA, 2 mM MgCl2, 0.1% BSA (fraction V), 0.005% Brij®, pH 7.5] and measured continuously in a luminometer. The extent of the stimulation by the substance to be tested can be determined relative to the signal of the unstimulated reaction.
The activation of heme-free guanylate cyclase is examined by addition of 25 μM of 1H-1,2,4-oxadiazolo[4,3-a]quinoxalin-1-one (ODQ) to the enzyme solution and subsequent incubation for 30 minutes and compared to the stimulation of the native enzyme.

[2] = molecular target: T2, recombinant guanylate cyclase reporter cell line (Rattus norvegicus, UniProt P20595); assay: sGC-activating activity in the CHO reporter cell in vitro; assay type: cell-based
T2 construct: expressed in transfected cells; host or cells: CHO reporter cell line
T2 sequence (P20595 1-619): T1 sequence (P20595 1-619)
T2 sequence (P19686 1-690 partner): T1 sequence (P19686 1-690 partner)
Procedure: The cellular action of the compounds according to the invention is determined at a recombinant guanylate cyclase reporter cell line, as described in F. Wunder et al., Anal. Biochem. 339, 104-112 (2005).

| Structure (SMILES) | pIC50 (saphenous artery rings; Oryctolagus cuniculus) | MEC (minimum effective concentration), activating action at the sGC enzyme [1] [nM] | pEC50 [1] | MEC (minimum effective concentration), sGC-activating activity in the CHO reporter cell [2] [nM] | pIC50 (saphenous artery rings) |
| --- | --- | --- | --- | --- | --- |
| CC1(C(=O)O)Cc2cccc(NC(=O)C(c3ccc(CN4N=C(c5ccccc5)OCC4=O)cc3)C3CCCC3)c2C1 (single isomer, unassigned) [Example 46, 4-[(Cyclopentyl{4-[(5-oxo-2-phenyl-5,6-dihydro-4H-1,3,4-oxadiazin-4-yl)methyl]phenyl}-acetyl)amino]-2-methyl-2,3-dihydro-1H-indene-2-carboxylic acid] | 6.96 | 4.1 | 6.89 | 3 |  |
| CCC(C)C(C(=O)Nc1cccc(CCC(=O)O)c1C)c1ccc(CN2N=C(c3ccccc3)OCC2=O)cc1 (single isomer, unassigned) [Example 77, 3-{2-Methyl-3-[(3-methyl-2-{4-[(5-oxo-2-phenyl-5,6-dihydro-4H-1,3,4-oxadiazin-4-yl)methyl]phenyl}pentanoyl)amino]phenyl}propanoic acid] | 6.20 | 0.4 | 7.62 | 1 |  |
| CCC(C)C(C(=O)Nc1cccc2c1CC(C)(C(=O)O)C2)c1ccc(CN2N=C(c3ccccc3)OCC2=O)cc1 (single isomer, unassigned) [Example 86, 2-Methyl-4-[(3-methyl-2-{4-[(5-oxo-2-phenyl-5,6-dihydro-4H-1,3,4-oxadiazin-4-yl)methyl]-phenyl}pentanoyl)amino]-2,3-dihydro-1H-indene-2-carboxylic acid] | 6.74 | 1.4 | 7.14 | 1 |  |
| Cc1c(CCC(=O)O)cccc1NC(=O)C(c1ccc(CN2N=C(c3ccccc3)OCC2=O)cc1)C1CCCC1 (single isomer, unassigned) [Example 115, 3-{3-[(cyclopcntyl{4-[(5-oxo-2-phcnyl-5,6-dihydro-4H-1,3,4-oxadiazin-4-yl)mcthyl]phcnyl}acetyl)amino]-2-mcthylphcnyl}propanoic acid] | 6.79 | 1.6 | 7.40 | 3 |  |
| O=C(O)C1Cc2cccc(NC(=O)C(c3ccc(CN4N=C(c5ccccc5)OCC4=O)cc3)C3CCCC3)c2C1 (single isomer, unassigned) [Example 126, 4-[(cyclopcntyl{4-[(5-oxo-2-phcnyl-5,6-dihydro-4H-1,3,4-oxadiazin-4-yl)mcthyl]phcnyl}acetyl)amino]-2,3-dihydro-1H-indenc-2-carboxylic acid] | 6.84 | 10 | 6.49 | 30 |  |
| CC(C)(Cc1cccc(NC(=O)C(c2ccc(Cn3nc(-c4ccccc4)ccc3=O)cc2)C2CCCC2)c1)C(=O)O (single isomer, unassigned) [Example 138, 3-{3-[(cyclopentyl{4-[(6-oxo-3-phenylpyridazin-1(6H)-yl)methyl]phenyl}acetyl)amino]phenyl}-2,2-dimethylpropanoic acid] | 7.28 | 5.1 | 6.48 | 10 |  |
| CC(C(C(=O)Nc1cccc(CC2(C(=O)O)CC2)c1)c1ccc(CN2N=C(c3ccccc3)OCC2=O)cc1)C(F)(F)F (single isomer, unassigned) [Example 164, 1-{3-[(4,4,4-trifluoro-3-methyl-2-{4-[(5-oxo-2-phenyl-5,6-dihydro-4H-1,3,4-oxadiazin-4-yl)methyl]phenyl}-butanoyl)amino]benzyl}cyclopropanecarboxylic acid] |  | 0.5 | 8.21 | 0.3 | 7.59 |
| CC(C(C(=O)Nc1cccc(CC2(C(=O)O)CC2)c1)c1ccc(CN2N=C(c3ccccc3)OCC2=O)cc1)C(F)(F)F (single isomer, unassigned) [Example 166, 1-{3-[(4,4,4-trifluoro-3-methyl-2-{4-[(5-oxo-2-phenyl-5,6-dihydro-4H-1,3,4-oxadiazin-4-yl)methyl]phenyl}-butanoyl)amino]benzyl}cyclopropanecarboxylic acid] |  | 0.4 | 8.62 | 0.3 | 8.31 |
| CC(C(C(=O)Nc1cccc(CCC(=O)O)c1)c1ccc(CN2N=C(c3ccccc3)OCC2=O)cc1)C(F)(F)F (single isomer, unassigned) [Example 192, 3-{3-[(4,4,4-Trifluoro-3-methyl-2-{4-[(5-oxo-2-phenyl-5,6-dihydro-4H-1,3,4-oxadiazin-4-yl)methyl]phenyl}butanoyl)amino]phenyl}propanoic acid] | 6.45 | 2.5 | 7.52 | 3 |  |
| CC(C(C(=O)Nc1cc(CCC(=O)O)ccc1F)c1ccc(CN2N=C(c3ccccc3)OCC2=O)cc1)C(F)(F)F (centres unmarked) [Example 185, 3-{4-fluoro-3-[(4,4,4-trifluoro-3-methyl-2-{4-[(5-oxo-2-phenyl-5,6-dihydro-4H-1,3,4-oxadiazin-4-yl)methyl]-phenyl}butanoyl)amino]phenyl}propanoic acid] | 7.19 |  |  | 0.3 |  |
